Here are results for 33 molecules from patent publication US8343934B2, “Diverse lead compound autotaxin inhibitors” (University of Memphis, priority 2009, dated 2013).

The test concerns the target T1, ATX (Homo sapiens, UniProt Q13822).
T1 construct: conditioned serum-free medium (CCM) from MDA-MB-435 cells as the source of ATX; endogenous in cells; host or cells: MDA-MB-435 cells (about 10x concentrated conditioned serum-free medium)
The test is described as follows: ATX inhibition assay (FS-3 substrate). The test is classed as biochemical. The settings on record: for % Response: preliminary screen, FS-3 hydrolysis at one hour, normalized to vehicle control, mean±S.D., same values given at 10 μM in Table 5; for IC50: Calculated IC50 data for the 30 active compounds, FS-3 substrate. The protocol: ATX inhibition was assayed using the substrate FS-3 (Echelon Biosciences, Inc., Salt Lake City, Utah, USA). The FS-3 assay used ˜10 times concentrated conditioned serum-free medium (CCM) from MDA-MB-435 cells as the source of ATX, while CCM comprised one-third of the total volume. The final volume for FS-3 was comprised of the substrate at varying concentrations and 30 μM charcoal-stripped fatty acid free BSA (Sigma Aldrich) in assay buffer (1 mM each CaCl2 and MgCl2, 5 mM KCl, 140 mM NaCl, 50 mM Tris pH 8.0).
All assays were performed in 96-well plates with data read at 1 minute intervals by a Synergy2 system (BioTek, Winooski, Vt.). The fluorescence produced upon the hydrolysis of FS-3 was monitored using an excitation wavelength of 485 nm and an emission wavelength of 528 nm at 37° C. (Ferguson et al., 2006). […] All readings were normalized to vehicle control after subtraction of fluorescence in the absence of CCM. Data are shown as the mean±S.D. of at least three wells.

Turning to `O=S(=O)(c1ccc(NC(C(O)C(O)C(O)C(O)CO)S(=O)(=O)O)cc1)c1ccc(NC(C(O)C(O)C(O)C(O)CO)S(=O)(=O)O)cc1` (stereo not shown) [compound 36701], the “% Response” value turned out to be 98 ± 3.7%.
As for `O=S(=O)(O)c1cc(O)c2ccc(Nc3ccc4c(O)cc(S(=O)(=O)O)cc4c3)cc2c1` [compound 37203], the “% Response” value worked out at 92 ± 9.1%.
On to `O=C(Nc1ccc2cc(S(=O)(=O)O)cc(O)c2c1)Nc1ccc2cc(S(=O)(=O)O)cc(O)c2c1` [compound 37204], for which the “% Response” value is on record as 106 ± 60.5%.
Still for that read-out and setting: with `O=C(Nc1ccc(C(=O)Nc2ccc3c(O)cc(S(=O)(=O)O)cc3c2)cc1)c1ccccc1.[Na+]` [compound 37215] the figure was 79 ± 3.7%; with `Nc1ccc(S(=O)(=O)c2ccc(NCNC(CSSCC(NCNc3ccc(S(=O)(=O)c4ccc(N)cc4)cc3)C(=O)O)C(=O)O)cc2)cc1` (stereo not shown) [compound 39858], 93 ± 4.6%.
The term IC50 denotes the point on the concentration scale where inhibition reaches its midpoint. Take `CN(C)C1C(=O)C(C(=O)NCNc2cccc(C(=O)O)c2C(=O)O)=C(O)C2(O)C(=O)C3=C(O)c4c(O)cccc4[C@](C)(O)[C@@H]3C[C@H]12` (stereo partly shown) [compound 43891]: the IC50 was 13.9 µM and the “% Response” value is given as 32 ± 9.1%.
Regarding `CCOc1cc(-c2ccc(N=Nc3c(S(=O)(=O)O)cc4ccc(N)cc4c3O)cc2)ccc1N=Nc1c(S(=O)(=O)O)cc2ccc(N)cc2c1O.[Na+]` [compound 44654], the “% Response” value is given as 61 ± 4.3%.
Still for that read-out and setting: with `O=C(Nc1ccc2c(O)cc(S(=O)(=O)O)cc2c1)Nc1ccc2c(O)cc(S(=O)(=O)O)cc2c1` [compound 45174] the figure was 89 ± 3.2%; with `O=C(Nc1ccc2c(O)cc(S(=O)(=O)[O-])cc2c1)Nc1ccc2c(O)c(N=Nc3ccc4cc(S(=O)(=O)[O-])ccc4c3)c(S(=O)(=O)[O-])cc2c1.[Na+].[Na+].[Na+]` [compound 45616], 64 ± 3.0%.
Regarding `O=C(Nc1ccc2cc(S(=O)(=O)O)ccc2c1)c1ccc(N=Nc2c(S(=O)(=O)O)cc3cc(S(=O)(=O)O)cc(NC(=O)c4ccccc4)c3c2O)cc1.[Na+]` [compound 45620], the IC50 was 8.85 µM and the “% Response” value came to 28 ± 3.7%.
For `COc1ccccc1N=Nc1c(S(=O)(=O)O)cc2cc(NC(=O)Nc3ccc4c(O)c(N=Nc5c(N)ccc6cc(S(=O)(=O)O)ccc56)c(S(=O)(=O)O)cc4c3)ccc2c1O` [compound 45622], in that order: 11.6 µM and 16 ± 3.1%.
On to `COc1ccc(/C=N/N=C(N)/C(N)=N/N=C/c2ccc(OC)c(S(=O)(=O)O)c2)cc1S(=O)(=O)O.[Na+]` [compound 46954], for which the “% Response” value is 92 ± 3.9%.
On the same count and under the same terms, with `NC(=N\N=C/c1ccc(O)c(S(=O)(=O)O)c1)/C(N)=N\N=C/c1ccc(O)c(S(=O)(=O)O)c1.[Na+]` [compound 47470] the figure was 90 ± 3.2%; with `NC(=N\N=C/c1ccccc1S(=O)(=O)O)/C(N)=N\N=C/c1ccccc1S(=O)(=O)O.[Na+]` [compound 47471], 95 ± 3.0%.
The same measure, in the same setting: to `Nc1c(N=Nc2ccc(S(=O)(=O)O)cc2)cc(S(=O)(=O)O)c2ccc(N=Nc3ccc([N+](=O)[O-])cc3)c(O)c12.[Na+]` [compound 47725] belongs 116 ± 4.2%; to `Cc1cc(C)c(N=Nc2cc(C)c(N=Nc3c(S(=O)(=O)[O-])cc4cc(Nc5ccccc5)ccc4c3O)cc2C)c(S(=O)(=O)[O-])c1.[Na+].[Na+]` [compound 47747], 73 ± 3.0%; to `O=C(Nc1ccc2c(O)c(N=Nc3ccccc3)c(S(=O)(=O)[O-])cc2c1)Nc1ccc2c(O)c(N=Nc3ccccc3)c(S(=O)(=O)[O-])cc2c1.[Na+].[Na+]` [compound 47749], 103 ± 58.1%.
The same measure, in the same setting: with `Nc1cccc(N=Nc2c(S(=O)(=O)[O-])cc3cc(NC(=O)Nc4ccc5c(O)c(N=Nc6cccc(N)c6)c(S(=O)(=O)[O-])cc5c4)ccc3c2O)c1.[Na+].[Na+]` [compound 47750] the figure was 68 ± 5.8%; with `Nc1c(N=Nc2ccc([N+](=O)[O-])cc2)c(S(=O)(=O)O)cc2cc(S(=O)(=O)O)c(N=Nc3ccc(-c4ccc(N=Nc5ccc(O)cc5)cc4)cc3)c(O)c12.[Na+]` [compound 47752], 52 ± 5.4%.
With `COc1cc(N=Nc2cc(S(=O)(=O)[O-])cc3cc(S(=O)(=O)[O-])cc(O)c23)c(C)cc1N=Nc1c(S(=O)(=O)[O-])cc2cc(Nc3ccccc3)ccc2c1O.[Na+].[Na+].[Na+]` [compound 47755], the IC50 was 37.6 µM and the “% Response” value came to 47 ± 3.7%.
For the molecule `CC(=O)Nc1ccc(N=Nc2c(S(=O)(=O)O)cc3cc(NC(=O)Nc4ccc5c(O)c(N=Nc6ccccc6)c(S(=O)(=O)O)cc5c4)ccc3c2O)cc1.[Na+]` [compound 47762], the “% Response” value stood at 83 ± 5.5%.
Take `COc1ccccc1N=Nc1c(S(=O)(=O)[O-])cc2cc(NC(=O)Nc3ccc4c(O)c(N=Nc5ccc(S(=O)(=O)[O-])cc5C)c(S(=O)(=O)[O-])cc4c3)ccc2c1O.[Na+].[Na+].[Na+]` [compound 47764]: the IC50 was 18.2 µM and the “% Response” value is 41 ± 4.3%.
`Nc1ccc(C(=O)Nc2cccc(C(=O)Nc3ccc4c(O)c(N=Nc5ccc(N=Nc6ccc(S(=O)(=O)[O-])cc6)cc5)c(S(=O)(=O)[O-])cc4c3)c2)cc1.[Na+].[Na+]` [compound 47767]: the “% Response” value was determined as 61 ± 3.7%.
For the molecule `COc1ccc(/C=N\NC(=O)N/N=C/c2ccc(OC)c(S(=O)(=O)O)c2)cc1S(=O)(=O)O.[Na+]` [compound 48775], the “% Response” value is given as 98 ± 5.5%.
Take `O=C(N/N=C\c1ccc(O)c(S(=O)(=O)O)c1)N/N=C/c1ccc(O)c(S(=O)(=O)O)c1.[Na+]` [compound 48776]: the “% Response” value was determined as 94 ± 3.5%.
The same measure, in the same setting: to `Nc1cccc(N=Nc2c(S(=O)(=O)[O-])cc3cc(Nc4ccc5c(O)c(N=Nc6cccc(N)c6)c(S(=O)(=O)[O-])cc5c4)ccc3c2O)c1.[Na+].[Na+]` [compound 51533] belongs 67 ± 4.0%; to `O=C(N/N=C/c1ccc(O)c(S(=O)(=O)O)c1)C(=O)N/N=C/c1ccc(O)c(S(=O)(=O)O)c1.[Na+]` [compound 55736], 95 ± 3.9%; to `COc1ccc(/C=N/NC(=O)C(=O)N/N=C/c2ccc(OC)c(S(=O)(=O)O)c2)cc1S(=O)(=O)O` [compound 56207], 100 ± 4.2%.
As for `Nc1cccc(N=Nc2c(S(=O)(=O)[O-])cc3cc(Nc4ccc5c(O)c(N=Nc6cccc(N)c6)c(S(=O)(=O)[O-])cc5c4)ccc3c2O)c1.[Na+].[Na+]` [compound 58055], the “% Response” value stood at 89 ± 3.9%.
Turning to `Cc1ccccc1N=Nc1c(S(=O)(=O)[O-])cc2cc(NC(=O)Nc3ccc4c(O)c(N=Nc5ccc6cc(S(=O)(=O)[O-])ccc6c5)c(S(=O)(=O)[O-])cc4c3)ccc2c1O.[Na+].[Na+].[Na+]` [compound 58057], the IC50 is 11.6 µM and the “% Response” value is 29 ± 3.6%.
For `COc1cc(N=Nc2c(S(=O)(=O)O)cc3cc(NC(=O)Nc4ccc5c(O)c(N=Nc6ccc7cc(S(=O)(=O)O)ccc7c6)c(S(=O)(=O)O)cc5c4)ccc3c2O)c(C)cc1N` [compound 58058], in that order: 13.8 µM and 30 ± 4.9%.
As for `Cc1cc(N=Nc2ccc(S(=O)(=O)[O-])cc2)c(N)c(N=Nc2ccc(S(=O)(=O)[O-])cc2)c1N.[Na+].[Na+]` [compound 65540], the “% Response” value is 71 ± 4.4%.
Same read-out and setting: to `Nc1c(N=Nc2ccc([N+](=O)[O-])cc2)c(S(=O)(=O)O)cc2cc(S(=O)(=O)O)c(N=Nc3ccc([N+](=O)[O-])cc3)c(O)c12.[Na+]` [compound 65544] belongs 76 ± 5.1%.
